The values below come from US12209081B2 (Katholieke Universiteit Leuven, priority 2020, dated 2025).

A value given as a limit tells only on which side of the number the result lay.

Chain of mouse TRPM3α2 (mTRPM3) ion channel (J9SQF3 other isoform, or with tags, fused parts or gaps): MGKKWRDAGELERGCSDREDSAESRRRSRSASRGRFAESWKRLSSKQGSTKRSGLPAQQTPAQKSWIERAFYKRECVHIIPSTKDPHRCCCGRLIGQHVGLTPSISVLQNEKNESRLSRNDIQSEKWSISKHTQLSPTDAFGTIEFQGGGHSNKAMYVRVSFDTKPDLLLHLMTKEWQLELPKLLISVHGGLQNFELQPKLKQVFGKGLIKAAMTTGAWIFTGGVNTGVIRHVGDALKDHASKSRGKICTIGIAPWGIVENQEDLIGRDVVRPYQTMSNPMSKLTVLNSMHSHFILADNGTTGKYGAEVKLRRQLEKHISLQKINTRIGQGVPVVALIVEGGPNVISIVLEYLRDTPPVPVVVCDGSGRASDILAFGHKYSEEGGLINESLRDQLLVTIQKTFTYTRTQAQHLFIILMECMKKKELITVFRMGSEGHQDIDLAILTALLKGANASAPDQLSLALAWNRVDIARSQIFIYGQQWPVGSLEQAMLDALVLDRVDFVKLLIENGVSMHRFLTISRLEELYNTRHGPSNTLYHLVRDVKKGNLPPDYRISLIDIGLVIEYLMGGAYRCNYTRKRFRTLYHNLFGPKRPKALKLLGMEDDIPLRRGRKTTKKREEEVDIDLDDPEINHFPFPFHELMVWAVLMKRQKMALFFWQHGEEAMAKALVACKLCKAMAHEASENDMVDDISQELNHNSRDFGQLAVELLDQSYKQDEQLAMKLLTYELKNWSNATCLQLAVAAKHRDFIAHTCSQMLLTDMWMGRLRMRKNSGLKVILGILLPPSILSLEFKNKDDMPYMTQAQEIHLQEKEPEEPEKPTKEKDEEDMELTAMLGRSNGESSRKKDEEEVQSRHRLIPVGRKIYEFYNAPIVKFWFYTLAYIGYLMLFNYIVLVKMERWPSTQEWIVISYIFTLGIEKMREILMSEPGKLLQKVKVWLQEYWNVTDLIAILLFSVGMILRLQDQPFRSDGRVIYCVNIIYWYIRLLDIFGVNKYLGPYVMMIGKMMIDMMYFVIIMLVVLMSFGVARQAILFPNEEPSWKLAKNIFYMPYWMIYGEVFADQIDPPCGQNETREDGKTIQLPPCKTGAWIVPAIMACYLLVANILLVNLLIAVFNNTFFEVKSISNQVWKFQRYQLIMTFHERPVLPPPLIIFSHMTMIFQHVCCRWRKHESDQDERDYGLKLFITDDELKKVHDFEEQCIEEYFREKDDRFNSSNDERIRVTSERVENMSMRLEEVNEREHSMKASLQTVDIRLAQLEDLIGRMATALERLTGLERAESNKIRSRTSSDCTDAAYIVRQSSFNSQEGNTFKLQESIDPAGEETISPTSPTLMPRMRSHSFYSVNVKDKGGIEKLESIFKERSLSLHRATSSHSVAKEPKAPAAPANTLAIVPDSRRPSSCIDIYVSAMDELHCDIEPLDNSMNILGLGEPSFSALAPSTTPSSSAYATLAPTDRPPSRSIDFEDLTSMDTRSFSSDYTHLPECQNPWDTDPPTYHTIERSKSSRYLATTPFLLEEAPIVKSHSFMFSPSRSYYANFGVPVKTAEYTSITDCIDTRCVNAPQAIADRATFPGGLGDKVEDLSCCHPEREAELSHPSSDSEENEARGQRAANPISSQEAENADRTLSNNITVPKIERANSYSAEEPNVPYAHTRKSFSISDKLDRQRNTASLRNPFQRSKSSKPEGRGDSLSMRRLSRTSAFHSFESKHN

This assay has as its target mouse TRPM3α2 (mTRPM3) ion channel (Mus musculus (Mouse), UniProt J9SQF3). Briefly: TRPM3 ion channel driven Ca2+ uptake, Fluo-4 AM assay, mTRPM3alpha2 overexpressing flip-in HEK293 cells stimulated with pregnenolone sulfate. The format is cell-based. The following applies: PS 50 μM, cpds 300-399. The essentials:
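Flip-in HEK293 cells loaded with Fluo-4 AM were added to plates holding compound plus 50 μM pregnenolone sulfate in Ca2+-containing Krebs buffer. Fluorescence (ex 485/em 535 nm) read directly after cell addition; % inhibition relative to PS-stimulated vehicle and positive-control inhibitor.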
As to `Cc1ncsc1COc1ccc2oc(C3CC3)c(C(=O)NC3(CO)CCOCC3)c2c1` [compound 314, 2-cyclopropyl-N-(4-(hydroxymethyl)tetrahydro-2H-pyran-4-yl)-5-((4-methylthiazol-5-yl)methoxy)benzofuran-3-carboxamide], the IC50 – broadly, the concentration at which inhibition is half-maximal – is below 1 µM. Compound `CNC(=O)C1(NC(=O)c2c(C)oc3ccc(OCc4cnc(C)s4)cc23)CCC1` [compound 318, 2-methyl-N-(1-(methylcarbamoyl)cyclobutyl)-5-((2-methylthiazol-5-yl)methoxy)benzofuran-3-carboxamide] had an IC50 below 1 µM. As for `CNC(=O)C1(NC(=O)c2c(C)oc3ccc(OCc4scnc4C)cc23)CCC1` [compound 319, 2-methyl-N-(1-(methylcarbamoyl)cyclobutyl)-5-((4-methylthiazol-5-yl)methoxy)benzofuran-3-carboxamide], the figure is below 1 µM. Take `CNC(=O)C1(NC(=O)c2c(C)oc3ccc(OCc4ccccn4)cc23)CCC1` [compound 320, 2-methyl-N-(1-(methylcarbamoyl)cyclobutyl)-5-(pyridin-2-ylmethoxy)benzofuran-3-carboxamide]: the IC50 is below 1 µM. In turn, `CNC(=O)CNC(=O)c1c(C)oc2ccc(OCc3scnc3C)cc12` [compound 321, 2-methyl-N-(2-(methylamino)-2-oxoethyl)-5-((4-methylthiazol-5-yl)methoxy)benzofuran-3-carboxamide] showed an IC50 below 1 µM. On to `Cc1ncsc1COc1ccc2oc(C)c(C(=O)NCCNS(C)(=O)=O)c2c1` [compound 322, 2-methyl-N-(2-(methylsulfonamido)ethyl)-5-((4-methylthiazol-5-yl)methoxy)benzofuran-3-carboxamide], for which the IC50 was below 1 µM. In the case of `Cc1ncsc1COc1ccc2oc(C)c(C(=O)NCCS(C)(=O)=O)c2c1` [compound 323, 2-methyl-N-(2-(methylsulfonyl)ethyl)-5-((4-methylthiazol-5-yl)methoxy)benzofuran-3-carboxamide], the concentration for half-maximal inhibition (IC50) was below 1 µM. As for `CNC(=O)C1(NC(=O)c2c(C)oc3ccc(OCc4scnc4C)cc23)COC1` [compound 324, 2-methyl-N-(3-(methylcarbamoyl)oxetan-3-yl)-5-((4-methylthiazol-5-yl)methoxy)benzofuran-3-carboxamide], the figure is below 1 µM; as for `Cc1oc2ccc(OCc3cccnc3C(N)=O)cc2c1C(=O)NC1(CO)CCOCC1` [compound 325], 1 to 20 µM; as for `Cc1ncsc1COc1ccc2oc(C)c(C(=O)NC3(CO)COC3)c2c1F` [compound 328, 4-fluoro-N-(3-(hydroxymethyl)oxetan-3-yl)-2-methyl-5-((4-methylthiazol-5-yl)methoxy)benzofuran-3-carboxamide], below 1 µM.

`COc1ncccc1COc1ccc2oc(C)c(C(=O)NC3(CO)CCOCC3)c2c1F` [compound 330, 4-fluoro-N-(4-(hydroxymethyl)tetrahydro-2H-pyran-4-yl)-5-((2-methoxypyridin-3-yl)methoxy)-2-methylbenzofuran-3-carboxamide] came in with an IC50 below 1 µM.

As for `Cc1oc2ccc(OCc3ccnn3CC(F)F)cc2c1C(=O)NC1(CO)CCOCC1` [compound 334, 5-((1-(2,2-difluoroethyl)-1H-pyrazol-5-yl)methoxy)-N-(4-(hydroxymethyl)tetrahydro-2H-pyran-4-yl)-2-methylbenzofuran-3-carboxamide], the IC50 is below 1 µM.

`Cc1oc2ccc(OCc3cccnc3N3CCC3)cc2c1C(=O)NC1(CO)CCOCC1` [compound 337, 5-((2-(azetidin-1-yl)pyridin-3-yl)methoxy)-N-(4-(hydroxymethyl)tetrahydro-2H-pyran-4-yl)-2-methylbenzofuran-3-carboxamide]: the 50% inhibitory concentration (IC50) is below 1 µM. In turn, `Cc1oc2ccc(OCc3cccnc3OC(F)F)cc2c1C(=O)NC1(CO)CCOCC1` [compound 339, 5-((2-(difluoromethoxy)pyridin-3-yl)methoxy)-N-(4-(hydroxymethyl)tetrahydro-2H-pyran-4-yl) -2-methylbenzofuran-3-carboxamide] registered an IC50 below 1 µM.
